From patent publication US20030134901A1, “Lipoxin compounds and their use in treating cell proliferative disorders” (priority 1993, published 2003)

Experiments:
[1] = molecular target: T1, LXA4 specific binding sites of differentiated HL-60 cells (Homo sapiens, UniProt P25090); assay: 3H-LXA4 specific binding to differentiated HL-60 cells; conditions: for displacement of 3H-LXA4 specific binding: competition, competitor 300 nM where printed
T1 construct: endogenous in cells; host or cells: HL-60 cells differentiated with DMSO, retinoic acid or PMA; intact cells
T1 sequence (P25090 1-351): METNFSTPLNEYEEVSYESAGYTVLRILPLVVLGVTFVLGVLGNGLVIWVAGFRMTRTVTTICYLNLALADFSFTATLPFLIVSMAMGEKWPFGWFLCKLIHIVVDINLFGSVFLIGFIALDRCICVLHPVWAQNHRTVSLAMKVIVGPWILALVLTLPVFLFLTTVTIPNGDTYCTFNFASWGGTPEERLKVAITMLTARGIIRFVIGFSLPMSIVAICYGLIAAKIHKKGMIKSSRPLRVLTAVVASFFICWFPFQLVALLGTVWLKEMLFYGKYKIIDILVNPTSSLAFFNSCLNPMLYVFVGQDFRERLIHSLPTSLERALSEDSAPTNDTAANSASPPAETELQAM
Description: Preparation of [11,12-^3H]LXA4. Tritiation of 11,12-acetylenic LXA4 methyl ester was carried out under a custom tritiation service (NET-259:92-2326) by New England Nuclear (Boston, Mass.). Briefly, 11,12-acetylene methyl ester was characterized by UV absorbance and reverse-phase HPLC as in (Nicolaou, K. C. et al. (1985) J. Am. Chem. Soc. 107:7515) and exposed to tritium atmosphere in methylene chloride at room temperature. This incubation was stirred in the presence of Lindlar catalyst (1.0 mg from Fluka Chemicals) for˜1 h. The resulting mixture was stored in methanol and isolated using RP-HPLC. Tritiated products were chromatographed as methyl esters utilizing a gradient HPLC system equipped with a photodiode array rapid spectral detector (Serhan, C. N., Methods in Enzymology: Arachidonate Related Lipid Mediators, in Murphy R. C., Fitzpatrick, F. (eds.), vol. 187. Orlando, Fla., Academic, (1990), p. 167). This mixture contained both [11,12-^3H]LXA4 and [11,12-^3H]-11-trans-LXA4 methyl esters (˜1:3 ratio) as determined by coelution with synthetic standards. After RP-HPLC, fractions containing [11,12-^3H]LXA4 were collected, and extracted into ethyl acetate. The free acid was prepared by LiOH saponification (Fiore, S. et al. (1992) J. Biol. Chem. 267:16168). Material from these fractions, when injected into UV-electrochemical detection HPLC, gave greater than 90% of radioactivity associated with a tetraene-containing product that coeluted with synthetic LXA4. Materials that eluted with the retention time of authentic LXA4 in two HPLC systems were taken for binding experiments. The specific activity calculated for [11,12-^3H]LXA4 was 40.5 Ci/mmole.
Cell cultures and differentiation. HL-60 cells were seeded in RPMI medium supplemented with 100 U/ml penicillin, 100 μg/ml streptomycin, and 10% fetal calf serum (Hyclone, Logan, Utah), incubated at 37° C. with 5% CO2 atmosphere in 250 ml flasks. Individual flasks containing ˜[…] next received dimethyl sulfoxide (DMSO) (1.12% v/v, 120 h) or retinoic acid (RA) (1 μM, 120 h) or phorbol myristate acetate (PMA) (20 nM, 48 h). Before performing binding assays, cells were washed twice in phosphate buffered saline (PBS), Ca^2+- and Mg^2+-free, enumerated and suspended at 20×10^6 cells/ml in Tris buffer (10 mM), pH 7.4 (Fiore, S. et al.(1992) J. Biol. Chem. 267:16168). Nitro blue tetrazolium reduction was performed to monitor induction of polymorphonuclear phenotype as in (Imaizumi, M. and Breitman, T. R. (1986) Blood 67:1273), and cell adherence was determined for induction of macrophage-like phenotype (Collins, S. J. (1987) Blood 70:1273). Human umbilical vein endothelial cells (HUVEC) maintained in culture third passage were obtained from Dr. M. Gimbrone (Brigham and Women's Hospital Department of Pathology).
Ligand binding. ^3H-LXA4 and ^3H-LTB4 binding was performed essentially as in Fiore, S. et al.(1992) J. Biol. Chem. 267:16168. After suspending cells in Tris buffer 10 mM (pH 7.4, Ca^2+ 2.5 mM, Mg^2+ 1.2 mM), aliquots (0.5 ml) were incubated (20 min at 4° C.) with ^3H- ligands alone (0.3 nM) or in the presence of increasing concentrations of homoligands or other compounds (3-300 nM). The incubations were rapidly centrifuged (60 sec, 12,000 g) on silicon oil (d=1.028), and cell-associated radioactivity was determined by liquid scintillation counting (Wallac 1409, Pharmacia, Piscataway, N.J.). Binding experiments with HUVEC cells were performed in 12 well plates with 3.5×10^5 cells/well. After 10 min, wells were washed twice with PBS and cell-associated label was recovered by adding glacial acetic acid (0.5 ml). Results obtained from these assays were submitted for further analysis using the Ligand program (Elsevier-Biosoft, Cambridge, UK).

A549 cells = assay: A549 cell proliferation, MTT assay; type: cell-based, human; conditions: for % inhibition: 10^−7 M, 72 hours at 37° C., mean ± SEM, 3 to 7 experiments
Description: A microculture 3,(4,5-dimethylthiazoyl-2-yl) 2,5 (diphenyl-tetrazolium bromide) (MTT) assay, (Marshall, N. J., et al. (1995) A critical assessment of the use of microculture tetrazolium assays to measure cell growth and function. Growth Regul. 5: 69-84.), was used to examine the actions of LXs and other eicosanoids on cell proliferation. A549 cells and fibroblasts from exponential-phase maintenance cultures were counted and dispensed within replicate 96-well culture plates in 100 μl volumes of medium (˜2000 cells/well). Following 24 hours at 37° C., the culture medium was removed, and fresh medium (100 μl) containing either the compounds (5-1000 nM) or vehicle (medium plus 0.15% ethanol) was added to 4 replicates for each condition studied and the culture plates were then incubated for up to 96 hours at 37° C. in a 5% CO2 atmosphere. At the end of this period, 25 μl of freshly prepared MTT in HBSS (5 mg/ml) was added to the wells and the plates were incubated for 4 hours at 37° C. Dye solution was aspirated, wells were washed once with HBSS and dye taken up by the cells was extracted in 100 μl of isopropyl alcohol:1 N HCl (96:4, v/v) and quantitated at 570 nm using a microplate reader (Molecular Devices, Menlo Park, Calif.). In some experiments, cells were grown in 12-well culture plates, treated as above and enumerated using a Neubauer hemocytometer. Viability was assessed routinely using trypan blue exclusion assay. For the A549 cells and fibroblasts, a linear relation was established for the MTT values and cell number within the range of the experiments shown (r=0.995, P<0.005). A549 cells grown for 72 hours in the presence of the compounds (5-1000 nM) or vehicle (0.15% EtOH) were lysed with 0.25 N NaOH and the cellular protein content was determined by applying the Bio-Rad (Richmond, Calif.) microassay method using bovine serum albumin as standard. The mean cellular protein content in resting A549 cells was 46.6±1.5 pg/cell.

PMA-treated HL-60 cells = assay: Lipoxin metabolism / bio-half-life assay with phorbol ester-treated HL-60 cells; type: in vitro ADME, human; conditions: at times up to two hours
Description: HL-60 cells were purchased from American Type Culture Collection (Rockville, Md.), and other cell culture reagents were from GIBCO (Grand Island, N.Y.). Versene (EDTA) was from Whittaker Bioproducts (Walkersville, Md.). Synthetic 11,12-acetylenic LXA4 methyl ester and LXs were from Cascade Biochemical (Reading, U.K.). 15(S)-15-m-PGE1, PGE1, and 5-HETE were from Cayman Chemical Co. (Ann Arbor, Mich.). [11,12-^3H]LXA4 was prepared from 11,12-acetylenic LXA4 using Lindlar catalyst as a custom tritiation (NET-259, lot 0 2793-275, New England Nuclear, Boston, Mass.). Tritiated products were isolated using RP-HPLC (Fiore et al. (1992) J. Biol. Chem. 267:16168; Serhan, C. N. (1990) Meth. Enzymol. 187:167). Methoxyamine and NAD were from Sigma Chemical Company (St. Louis, Mo.). Manganese dioxide and Adams reagent were from Aldrich Chemical Co. (Milwaukee, Wis.).
Human PMN were obtained from healthy volunteers by gradient centrifugation of heparinized fresh venous blood (Böyum, A. ([…]) Scand. J. Clin. Lab. Invest. 21:77). HL-60 cells were seeded in RPMI supplemented with penicillin (100 U/ml), streptomycin (100 μ/ml), fetal bovine serum (10%) (Hyclone, Logan, Utah) and incubated (37° C. with 5% CO2 atmosphere) in plastic 250 ml flasks. Individual flasks containing […] HL-60 cells/ml were incubated in the presence or absence of phorbol 12-myristate 13-acetate (PMA) (10 or 16 nM, 24-27 h) and adherence was monitored for induction of macrophage-like phenotype as in Collins, S. J. (1987) Blood 70:1233. […]
Incubations with eicosanoids were stopped with cold methanol containing either PGB2 or 5-HETE as internal standards (5-HETE was used when 15-oxo-ETE was quantified). […] Formation of 15-oxo-ETE by 100,000 g supernatants (cf. Agins, A. P. et al. (1987) Agents Actions 21:397; Xun, C-Q. et al.(1991) Biochem. J. 279:553; and Sok, D-E. et al. (1988) Biochem. Biophys. Res. Commun. 156:524) was quantified after RP-HPLC using an ODS column (4.6 mm×25 cm) eluted with methanol/H2O/acetic acid (70:30:0.01, v/v/v) monitored at 280 nm with a flow rate of 1 ml/min. […] On-line spectra were recorded using a diode array detector (Hewlett-Packard 1040M series II) equipped with HPLC^3D ChemStation software (DOS series). […]
The “bio-half-life” of compounds 1-8 was assessed using phorbol ester-treated human promyelocytic leukemia (HL-60) cells as described in Example 2. […]

Row | Compound | displacement of 3H-LXA4 specific binding [1] | % inhibition (A549 cells) [%] | other results
1 | trihydroxyheptanoic acid (methyl ester) | Neither LXB4, LTB4, nor trihydroxyheptanoic acid (methyl ester) (300 nM) were able to displace | – | –
2 | COc1ccc(/C=C/CCCCOc2cccc(OCCCCC(=O)O)c2CCC(=O)O)cc1 [ONO-4057] | did not displace | – | –
3 | CCCCC[C@@H](O)/C=C/C=C\C=C\C=C\C(O)C(O)CCCC(=O)O (stereo in doubt) [15-epi-LXA4, 15R-5,6,15-trihydroxy-7,9,13-trans-11-cis-eicosatetraenoic acid] | – | 20.1 ± 1.9 | inhibition of A549 cell growth compared with LXA4 (A549 cells; equimolar levels (100 nM)): to a similar extent as LXA4
4 | CCCCC[C@@H](O)C(O)/C=C/C=C/C=C\C=C\C(O)CCCC(=O)O (stereo in doubt) [15-epi-LXB4, 15R-5,14,15-trihydroxy-6,10,12-trans-8-cis-eicosatetraenoic acid] | – | 79.3 ± 0.3 | inhibition proliferation (A549 cells; equimolar levels (100 nM), Table 1): ~80%
5 | cyclohexyl-LXA4 [compound 4] | – | – | recovery in the incubation medium (bio-half-life) (PMA-treated HL-60 cells): quantitatively recovered
6 | CCCCC/C=C\C\C=C/C=C/C=C/[C@@H](SC[C@H](NC(=O)CC[C@H](N)C(=O)O)C(=O)NCC(=O)O)[C@@H](O)CCCC(=O)O [LTC4] | – | – | decrease of 3H-LXA4 specific binding ([1]; added in 3 log molar excess): ~30%
